Read-outs that look alike come from different tables or passages of the source.
Legend:
[1] = target: mLTC-EGFR (Homo sapiens, UniProt P00533, C797S/L858R/T790M); assay: Intact protein mass spectrometry, covalent adduct formation; assay type: binding; conditions: for Protein adduct formation: adduct stoichiometry by intact protein mass spectrometry; for covalent adduct formation, in words: intact protein mass spectrometry
[2] = target: recombinant doubly mutated EGFR L858R, T790M kinase domain (mLT-EGFR) (Homo sapiens, UniProt P00533, L858R/T790M); assay: Kinetic analysis (AssayQuant); assay type: biochemical; conditions: for Ki: read-out: KI app
Description: Measurement of K I, K inact and K inact/K I was carried out by AssayQuant Technologies inc.

[3] = target: T1, wild-type EGFR (WT-EGFR) (Homo sapiens, UniProt P00533); assay: TR-FRET fluorescent probe displacement assay; assay type: binding
T1 construct: made in house; host or cells: SF9 insect cells (MultiBac)
Description: Compounds (dissolved to 100 mM in DMSO) were dispensed into black low volume 384 well assay plates (Corning) over a final concentration range of 100,000, 30,000, 10,000, 3000, 1000, 300, 100, 30, 10, and 3 nM using an Echo 550 (Labcyte). Positive control compound and DMSO as a negative control were dispensed into the first and last well, respectively. Each well was backfilled with DMSO to a final volume of 200 nL, resulting in final assay DMSO concentrations of 1%. […] The data were analyzed using Graphpad Prism/Dotmatics Studies Software. Assays conducted in technical replicate and repeated as a biological duplicate.

[4] = tested on: EGFR phosphorylation (Tyr1068) in H1975 (L858R, T790M) cells; assay: Western blot of EGFR phosphorylation; assay type: cell-based
Description: Cells, seeded on the previous day, were incubated with test compound at the indicated concentrations or DMSO (0.1%) for 4 h. […] Preparation of lysates and Western blotting was performed twice as independent experiments.
Samples were prepared by diluting lysates in PBS to the desired concentration and before adding 4X XT sample buffer. Samples were then denatured at 98 °C for 5 min and then centrifuged to remove the residue. […] The quality of transfer was assessed using Ponceau S Stain (Sigma-Aldrich Cat. No. p7170).
Loading control antibodies were prepared in 5% milk w/v with 1× TBS/T (0.1 v/v) solution at a determined optimum concentration.
Proteins were detected using Clarity ECL substrate (Bio-Rad) and imaged using a Licor Odyssey FC.

[5] = tested on: EGFR phosphorylation (Tyr1068) in H1975 (L858R, T790M) cells; assay: HTRF cellular EGFR phosphorylation; assay type: cell-based; conditions: Homo sapiens, NCI-H1975; read-out: pEGFR IC50 by HTRF
Description: Cells were plated at 20,000 cells per well in 96-well plates and placed at 37 °C with 5% CO2. Compounds were reconstituted in DMSO. Once adhered (after 24 h), cells were treated with compounds at a final concentration of 0.1% DMSO in media. Compounds were added to duplicate wells and incubated 37 °C for 3 h with 5% CO2. For A431 cells 0.5 h before the end of incubation; 100 ng/mL of EGF (Thermo Fisher, Cat. No. PHG0311) was added to all compound-treated cells as well as control. Compound and media were removed from the cells, and then 50 μL of HTRF lysis buffer was added (lysis buffer was diluted from 4× stock to 1× in deionized (DI) water, with 1% blocking agent also added). Cells were lysed on a plate shaker (2000 rpm) for 30 min at room temperature. pEGFR expression was assessed using the Human Phospho-EGFR (Tyr1068) cellular detection kit (Revvity, Cat. No. 64EG1PEH). Total EGFR expression was monitored using the Human Total EGFR cellular detection kit (Revvity, Cat. No. 64NG1PEH) as per the manufacturer’s instructions. […] Results were calculated as the ratio of pEGFR/total EGFR and then the percentage of 0 μM control.

[6] = tested on: EGFR; assay: Time-course of EGFR modification by mass spectrometry; assay type: binding; conditions: within 10 min
Description: Peptides were detected in positive ion mode using electrospray ionization with nebulizer pressure of 35 psi, drying gas flow of 13 L/min and source gas temperature of 290 °C. Sheath gas temperature of 275 °C and gas flow of 12 L/min, capillary voltage of 4000 V and nozzle voltage of 300 V were also applied. Mass spectra were acquired using MassHunter Acquisition software (version B.08.00) over 100–1700 m/z range, at a rate of 5 spectra/s and 200 ms/spectrum, using standard mass range mode (3200 m/z) with extended dynamic range (2 GHz) and collection of both centroid and profile data. MS/MS fragmentation spectra were acquired over 100–3000 m/z range, at a rate of 3 spectra/s and 333.3 ms/spectrum. Acquired MS and MS/MS spectra were analyzed using Agilent MassHunter BioConfirm software (version B.10.00) against known amino acid sequences for EGFR for confirmation of covalent binding at Cys775. For the time course study, 150 μL EGFR (0.15 mg/mL) was incubated with compound 25328 to final concentration of 15 μM in a buffer solution of 20 mM Tris pH 8, 150 mM NaCl, 4% glycerol, 1 mM TCEP, 1% DMSO. […] Intact protein analysis perform as detailed above.

[7] = tested on: BAF EGFR L858R cells; conditions: BAF EGFR cell line; published compound, reference number not given; cited from earlier work
[8] = tested on: BAF EGFR L858R/C775S cells; conditions: BAF EGFR cell line; published compound, reference number not given; cited from earlier work
[9] = TR-FRET, n > 3, read-out: WT-EGFR IC50
[10] = TR-FRET, n > 3, read-out: WT-EGFR pIC50 ± std dev (converted)
[11] = TR-FRET, read-out: WT-EGFR IC50
[12] = supplementary csv, read-out: WT pIC50 (converted)

C#CC(=O)Nc1ccccc1Oc1ccc(-c2nn(C)c3ncnc(N)c23)cc1 [Compound S9]
Protein adduct formation [1]: 1-4

C#Cc1cc(=O)n(-c2ccccc2)c2nc(Nc3ccc(N4CCN(C)CC4)cc3)ncc12 [Compound 9, 5-Ethynyl-2-((4-(4-methylpiperazin-1-yl)phenyl)amino)-8-phenylpyrido[2,3-d]pyrimidin-7(8H)-one]
kinact [2]: 0.02 ± 0.0041 s⁻¹ | kinact/KI [2]: 8.2e+08 ± 8.3e+06 M⁻¹ s⁻¹ | Ki [2]: 24 ± 5.2 nM | IC50 [3, 9]: 77 nM | IC50 [3, 10]: 79.4 nM

C#CC(=O)Nc1cccc(-c2nn(C)c3ncnc(N)c23)c1 [Compound S2]
Protein adduct formation [1]: 1-3

C#Cc1cc(-c2cnn3ccccc23)nc(Nc2ccccc2)n1 [Compound 2, 4-Ethynyl-N-phenyl-6-(pyrazolo[1,5-a]pyridin-3-yl)pyrimidin-2-amine]
covalent adduct formation, in words [1]: addition of a single adduct by mass spectrometry and a small amount of double adduct | IC50 [3, 11]: 48000 ± 16000 nM | IC50 [3, 12]: 50100 nM

C=CC(=O)NCc1cccc(-c2nn(C)c3ncnc(N)c23)c1 [Compound S3]
Protein adduct formation [1]: 0

C#Cc1cc(=O)n(-c2ccccc2)c2nc(Nc3ccc(N4CCOCC4)cc3)ncc12 [Compound 6, 5-Ethynyl-2-((4-morpholinophenyl)amino)-8-phenylpyrido[2,3-d]pyrimidin-7(8H)-one]
kinact [2]: 0.0061 ± 0.00035 s⁻¹ | kinact/KI [2]: 3.7e+08 ± 3.8e+06 M⁻¹ s⁻¹ | Ki [2]: 16 ± 1.1 nM | IC50 [3, 9]: 69 nM | IC50 [3, 10]: 63.1 nM

C=CC(=O)Nc1cc(Nc2nccc(-c3cn(C)c4ccccc34)n2)c(OC)cc1N(C)CCN(C)C [osimertinib, reference compound]
inhibition of EGFR and ERK1/2 phosphorylation (Western blot) ([4]; H1975, 4 h exposure, concentration series): inhibition of EGFR and ERK1/2 phosphorylation was evident

CC#Cc1cc(=O)n(-c2ccccc2)c2nc(Nc3ccccc3OC)ncc12 [Compound S12]
covalent adduct formation, in words [1]: little to no modification | IC50 [3, 10]: > 100000 nM | IC50 [3, 11]: > 100000 nM

C=CC(=O)Nc1cccc(-c2nn(C)c3ncnc(N)c23)c1 [Compound S1]
Protein adduct formation [1]: 1

C#Cc1cc(=O)n(-c2ccccc2)c2nc(Nc3ccc(N(C)C(=O)CCOC)cc3OC)ncc12 [Compound 11, N-(4-((5-Ethynyl-7-oxo-8-phenyl-7,8-dihydropyrido[2,3-d]pyrimidin-2-yl)amino)-3-methoxyphenyl)-3-methoxy-N-methylpropanamide]
IC50 [3, 9]: 4100 nM | IC50 [3, 10]: 3160 nM

C=Cc1cc(=O)n(-c2ccccc2)c2nc(Nc3ccccc3OC)ncc12 [Compound S11]
covalent adduct formation, in words [1]: reduced protein modulation | IC50 [3, 10]: > 100000 nM | IC50 [3, 11]: > 100000 nM

C#Cc1cc(=O)n(-c2ccccc2)c2nc(Nc3ccc(N4CCOCC4)cc3OC)ncc12 [Compound 5, 5-Ethynyl-2-((2-methoxy-4-morpholinophenyl)amino)-8-phenylpyrido[2,3-d]pyrimidin-7(8H)-one]
IC50 [3, 9]: 57 nM | IC50 [3, 10]: 63.1 nM

C=CC(=O)NCCOc1ccc(-c2nn(C)c3ncnc(N)c23)cc1 [Compound S7]
Protein adduct formation [1]: 0

C#Cc1cc(=O)n(-c2ccccc2)c2nc(Nc3ccc(N(C)C(=O)COC)cc3OC)ncc12 [Compound 10, N-(4-((5-Ethynyl-7-oxo-8-phenyl-7,8-dihydropyrido[2,3-d]pyrimidin-2-yl)amino)-3-methoxyphenyl)-2-methoxy-N-methylacetamide]
kinact [2]: 0.0035 ± 0.00072 s⁻¹ | kinact/KI [2]: 1.8e+07 ± 480000 M⁻¹ s⁻¹ | Ki [2]: 200 ± 45 nM | IC50 [3, 9]: 3300 nM | IC50 [3, 10]: 3160 nM

C#CC(=O)NCc1cc(=O)n(-c2ccccc2)c2nc(Nc3ccccc3OC)ncc12 [Compound S5]
Protein adduct formation [1]: 1-2

C#Cc1cc(=O)n(-c2ccccc2)c2nc(Nc3ccc(N(C)C(=O)CN(C)C)cc3OC)ncc12 [Compound 12, 2-(Dimethylamino)-N-(4-((5-ethynyl-7-oxo-8-phenyl-7,8-dihydropyrido[2,3-d]pyrimidin-2-yl)amino)-3-methoxyphenyl)-N-methylacetamide]
kinact [2]: 0.0051 ± 0.00061 s⁻¹ | kinact/KI [2]: 3.3e+07 ± 440000 M⁻¹ s⁻¹ | Ki [2]: 160 ± 20 nM | IC50 [3, 9]: 5100 nM | IC50 [3, 10]: 5010 nM

C=CC(=O)Nc1ccccc1Oc1ccc(-c2nn(C)c3ncnc(N)c23)cc1 [Compound S8]
Protein adduct formation [1]: 0-1

C#Cc1cc(=O)n(-c2ccccc2)c2nc(Nc3ccccc3OC)ncc12 [Compound 3, 5-Ethynyl-2-[(2-methoxyphenyl)amino]-8-phenylpyrido[2,3-d]pyrimidin-7-one]
IC50 [5]: > 3000 nM | inhibition of pEGFR (Western blot) ([4]; H1975, 10 μM, 4 h): showed inhibition of pEGFR | protein modified [6]: Over 50%

C=CC(=O)Nc1cc(C(=O)Nc2nc3cccc(Cl)c3n2[C@@H]2CCCCN(C(=O)C=C)C2)cs1 [dual C775–C797 inhibitor]
GI50 [7]: 10 nM | GI50 [8]: 20 nM

COc1ccccc1Nc1ncc2ccc(=O)n(-c3ccccc3)c2n1 [Compound S10]
IC50 [3, 10]: 15800 nM | IC50 [3, 11]: 15000 nM

C#Cc1cc(=O)n(-c2ccccc2)c2nc(Nc3ccc(N4CCN(C)CC4)cc3OC)ncc12 [Compound 8, 5-Ethynyl-2-(2-methoxy-4-(4-methylpiperazine-1-ylphenyl)amino)-8-phenylpyrido[2,3-d]pyrimidin-7(8H)-one]
IC50 [3, 9]: 100 nM | IC50 [3, 10]: 100 nM | IC50 [3, 12]: 100 nM

C=CC(=O)NCc1cc(=O)n(-c2ccccc2)c2nc(Nc3ccccc3OC)ncc12 [Compound S4]
Protein adduct formation [1]: 0
